Results from US8415469B2, “Compounds and methods for kinase modulation, and indications therefor” (Plexxikon Inc., priority 2005, dated 2013).

Tests used:
Type in all cases: biochemical
Kdr = molecular target: T1, Kdr (Homo sapiens, UniProt P35968); assay: Z'-Lyte FRET kinase assay (Invitrogen), Kdr; details: read-out: IC50, activity toward kinase Kdr
T1 construct: purchased Invitrogen (assay run by Invitrogen)

Stk6 = molecular target: T2, Stk6 (Homo sapiens, UniProt O14965); assay: Z'-Lyte FRET kinase assay (Invitrogen), Stk6; details: read-out: IC50, activity toward kinase Stk6
T2 construct: purchased Invitrogen (Carlsbad, Calif.), screening service
T2 sequence (O14965 1-403): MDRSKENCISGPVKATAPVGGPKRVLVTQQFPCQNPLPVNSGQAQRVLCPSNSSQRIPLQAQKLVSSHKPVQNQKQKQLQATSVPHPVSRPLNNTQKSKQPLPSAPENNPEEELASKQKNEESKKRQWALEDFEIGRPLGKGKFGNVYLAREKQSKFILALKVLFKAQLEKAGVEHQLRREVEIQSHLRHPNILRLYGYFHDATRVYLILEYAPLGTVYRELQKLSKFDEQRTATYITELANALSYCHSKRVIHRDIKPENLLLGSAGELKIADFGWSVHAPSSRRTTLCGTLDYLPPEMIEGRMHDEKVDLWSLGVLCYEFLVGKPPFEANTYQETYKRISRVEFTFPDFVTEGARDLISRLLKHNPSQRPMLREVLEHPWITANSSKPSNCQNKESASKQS

MAP4K4 = MAP4K4 (Homo sapiens, UniProt O95819); assay: AlphaScreen kinase assay, MAP4K4; details: read-out: IC50, activity toward kinase MAP4K4
B-Raf V600E = molecular target: T3, B-Raf V600E (Homo sapiens, UniProt P15056, V600E); assay: AlphaScreen kinase assay, B-Raf V600E; details: read-out: IC50, activity toward kinase B-Raf V600E
T3 construct: P4254. pFastBacBD-CDC37 BRAF D437-K722-X, V600E; His6 with pFastBac HT leader (TEV site) (N); made in house; host or cells: Sf9 (baculovirus; chaperone CDC37 co-expressed)

Jnk3 = molecular target: T4, Jnk3 (Homo sapiens, UniProt P53779); assay: AlphaScreen kinase assay, Jnk3; details: read-out: IC50, activity toward kinase Jnk3
T4 construct: purchased Upstate Biotechnology

Kit = molecular target: T5, Kit (Homo sapiens, UniProt P10721); assay: AlphaScreen kinase assay, Kit; details: read-out: IC50, activity toward kinase Kit
T5 construct: P1332.N6 BI PTP KIT M552-K948-X COD; His6 (N); made in house; host or cells: E. coli (PTP1B co-expressed)

Flt1 = molecular target: T6, Flt1 (Homo sapiens, UniProt P17948); assay: AlphaScreen kinase assay, Flt1; details: read-out: IC50, activity toward kinase Flt1
T6 construct: P1826.pETN6 BI-PTP FLT1 M799-D1165-X WT; His6 (N); made in house; host or cells: E. coli (PTP1B co-expressed)
T6 sequence (P17948 with tags, fused parts or gaps): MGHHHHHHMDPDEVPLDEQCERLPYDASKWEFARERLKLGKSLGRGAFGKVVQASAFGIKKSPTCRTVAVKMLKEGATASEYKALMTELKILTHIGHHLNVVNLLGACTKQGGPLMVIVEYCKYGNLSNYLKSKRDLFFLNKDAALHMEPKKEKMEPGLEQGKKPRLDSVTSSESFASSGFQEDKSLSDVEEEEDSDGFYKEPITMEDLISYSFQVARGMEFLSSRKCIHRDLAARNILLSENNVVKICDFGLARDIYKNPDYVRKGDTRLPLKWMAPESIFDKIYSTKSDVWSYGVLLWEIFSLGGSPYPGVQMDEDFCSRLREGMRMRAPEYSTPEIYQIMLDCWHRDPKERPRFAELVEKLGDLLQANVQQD

Fms = molecular target: T7, Fms (Homo sapiens, UniProt P07333); assay: AlphaScreen kinase assay, Fms; details: read-out: IC50, activity toward kinase Fms
T7 construct: purchased Upstate Biotechnology

Fak = molecular target: T8, Fak (Homo sapiens, UniProt Q05397); assay: AlphaScreen kinase assay, Fak; details: read-out: IC50, activity toward kinase Fak
T8 construct: P1358.pFastBacHtb FAK S411-Q686-X; His6 with pFastBacHTb leader (TEV site) (N); made in house; host or cells: Sf9 (baculovirus)

FGFR1 = molecular target: T9, FGFR1 (Homo sapiens, UniProt P11362, C488A/C584S); assay: AlphaScreen kinase assay, FGFR1; details: read-out: IC50, activity toward kinase FGFR
T9 construct: P1351.pET N6 BI-PTP FGFR A458-E765-X C488A, C584S; made in house; host or cells: E. coli (PTP1B co-expressed)

B-Raf = molecular target: T10, B-Raf (Homo sapiens, UniProt P15056); assay: AlphaScreen kinase assay, B-Raf; details: read-out: IC50, activity toward kinase B-Raf
T10 construct: purchased Upstate Biotechnology

c-Raf-1 = molecular target: T11, c-Raf-1 (Homo sapiens, UniProt P04049); assay: AlphaScreen kinase assay, c-Raf-1; details: read-out: IC50, activity toward kinase c-Raf-1
T11 construct: purchased Upstate Biotechnology

Jnk1 = molecular target: T12, Jnk1 (Homo sapiens, UniProt P45983); assay: AlphaScreen kinase assay, Jnk1; details: read-out: IC50, activity toward kinase Jnk1
T12 construct: purchased Upstate Biotechnology

Jnk2 = molecular target: T13, Jnk2 (Homo sapiens, UniProt P45984); assay: AlphaScreen kinase assay, Jnk2; details: read-out: IC50, activity toward kinase Jnk2
T13 construct: purchased Roche Protein Expression Group (Indianapolis, IN)
Summary of the method: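 Kinase activity was measured as phosphorylation of a biotinylated peptide, detected with streptavidin donor and phospho-antibody acceptor beads. Compounds, from 20 mM DMSO stocks, were tested at eight concentrations in 1:3 serial dilution.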

Ret = molecular target: T14, Ret (Homo sapiens, UniProt P07949); assay: AlphaScreen kinase assay, Ret; details: read-out: IC50, activity toward kinase Ret
T14 construct: P1378.pET-SF BI-PTP RET H661-R1012 HIS; made in house
T14 sequence (P07949 with tags, fused parts or gaps): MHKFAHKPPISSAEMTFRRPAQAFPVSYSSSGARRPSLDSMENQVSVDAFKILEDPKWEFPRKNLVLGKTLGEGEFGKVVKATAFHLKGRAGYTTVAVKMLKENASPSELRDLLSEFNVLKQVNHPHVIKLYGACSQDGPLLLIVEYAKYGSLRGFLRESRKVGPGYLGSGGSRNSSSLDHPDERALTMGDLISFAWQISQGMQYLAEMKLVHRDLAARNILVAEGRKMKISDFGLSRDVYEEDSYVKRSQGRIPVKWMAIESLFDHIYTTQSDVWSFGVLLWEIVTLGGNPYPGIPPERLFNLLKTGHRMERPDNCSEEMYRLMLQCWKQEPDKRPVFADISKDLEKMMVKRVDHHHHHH

Src = molecular target: T15, Src (Homo sapiens, UniProt P12931); assay: AlphaScreen kinase assay, Src; details: read-out: IC50, activity toward kinase Src
T15 construct: P1144. pET-N6 BI-PTP SRC V86-L536-X; made in house

Measured: IC50

T4 sequence (P53779 whole entry): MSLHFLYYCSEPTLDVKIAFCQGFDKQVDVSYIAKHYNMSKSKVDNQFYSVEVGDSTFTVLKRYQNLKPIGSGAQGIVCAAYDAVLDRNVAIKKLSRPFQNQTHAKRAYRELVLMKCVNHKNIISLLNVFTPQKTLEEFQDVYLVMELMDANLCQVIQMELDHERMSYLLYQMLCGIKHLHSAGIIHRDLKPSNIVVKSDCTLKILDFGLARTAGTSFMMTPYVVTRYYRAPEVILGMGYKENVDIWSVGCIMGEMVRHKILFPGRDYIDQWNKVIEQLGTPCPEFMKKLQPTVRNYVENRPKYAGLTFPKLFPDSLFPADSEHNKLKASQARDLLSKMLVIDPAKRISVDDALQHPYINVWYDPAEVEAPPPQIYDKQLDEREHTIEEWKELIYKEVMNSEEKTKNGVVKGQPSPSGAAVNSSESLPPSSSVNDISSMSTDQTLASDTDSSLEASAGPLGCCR
Sequence of MAP4K4 (O95819 whole entry): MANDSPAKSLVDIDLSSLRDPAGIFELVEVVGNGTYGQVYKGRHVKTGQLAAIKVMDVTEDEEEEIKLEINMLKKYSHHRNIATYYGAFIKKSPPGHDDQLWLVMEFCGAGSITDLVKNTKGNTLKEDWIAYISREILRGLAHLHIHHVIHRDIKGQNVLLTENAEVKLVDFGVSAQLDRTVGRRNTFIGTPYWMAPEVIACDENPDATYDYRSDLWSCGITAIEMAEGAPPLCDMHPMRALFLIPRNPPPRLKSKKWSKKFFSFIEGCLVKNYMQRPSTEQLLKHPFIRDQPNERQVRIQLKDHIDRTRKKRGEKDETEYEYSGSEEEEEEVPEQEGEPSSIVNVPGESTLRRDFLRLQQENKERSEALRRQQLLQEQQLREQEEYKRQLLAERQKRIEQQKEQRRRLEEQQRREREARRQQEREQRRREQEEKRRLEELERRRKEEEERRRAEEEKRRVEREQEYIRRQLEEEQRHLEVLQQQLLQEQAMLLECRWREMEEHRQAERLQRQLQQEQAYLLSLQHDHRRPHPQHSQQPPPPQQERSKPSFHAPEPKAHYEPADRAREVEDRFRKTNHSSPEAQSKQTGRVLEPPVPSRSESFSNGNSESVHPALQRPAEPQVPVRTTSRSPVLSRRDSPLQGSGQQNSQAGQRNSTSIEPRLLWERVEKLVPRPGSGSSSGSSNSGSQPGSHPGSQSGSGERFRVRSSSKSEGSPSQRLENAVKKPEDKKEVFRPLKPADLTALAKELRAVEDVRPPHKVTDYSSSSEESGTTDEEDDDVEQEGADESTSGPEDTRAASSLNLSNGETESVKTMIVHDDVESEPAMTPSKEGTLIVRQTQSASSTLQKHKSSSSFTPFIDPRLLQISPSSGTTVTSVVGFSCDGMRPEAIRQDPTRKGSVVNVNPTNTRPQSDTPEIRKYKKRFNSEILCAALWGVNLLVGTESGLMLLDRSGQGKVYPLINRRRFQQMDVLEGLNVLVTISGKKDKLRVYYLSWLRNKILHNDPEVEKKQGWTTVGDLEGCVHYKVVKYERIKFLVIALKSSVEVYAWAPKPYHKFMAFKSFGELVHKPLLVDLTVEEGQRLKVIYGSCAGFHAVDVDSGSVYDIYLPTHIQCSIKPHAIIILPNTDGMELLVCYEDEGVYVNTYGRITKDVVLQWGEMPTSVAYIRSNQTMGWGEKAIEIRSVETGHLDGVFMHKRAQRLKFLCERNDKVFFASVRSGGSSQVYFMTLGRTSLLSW
T5 sequence (P10721 with tags, fused parts or gaps): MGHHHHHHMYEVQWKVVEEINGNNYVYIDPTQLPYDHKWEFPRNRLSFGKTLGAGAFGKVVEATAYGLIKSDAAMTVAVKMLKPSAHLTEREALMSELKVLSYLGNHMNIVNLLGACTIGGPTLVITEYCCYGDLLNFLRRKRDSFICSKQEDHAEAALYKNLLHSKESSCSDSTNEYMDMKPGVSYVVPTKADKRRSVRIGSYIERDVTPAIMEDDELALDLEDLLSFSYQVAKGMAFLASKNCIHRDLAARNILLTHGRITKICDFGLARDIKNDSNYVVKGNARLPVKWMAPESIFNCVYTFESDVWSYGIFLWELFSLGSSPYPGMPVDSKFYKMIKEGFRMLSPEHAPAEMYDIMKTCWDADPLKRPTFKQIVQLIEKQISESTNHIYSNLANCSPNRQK
T10 sequence (P15056 whole entry): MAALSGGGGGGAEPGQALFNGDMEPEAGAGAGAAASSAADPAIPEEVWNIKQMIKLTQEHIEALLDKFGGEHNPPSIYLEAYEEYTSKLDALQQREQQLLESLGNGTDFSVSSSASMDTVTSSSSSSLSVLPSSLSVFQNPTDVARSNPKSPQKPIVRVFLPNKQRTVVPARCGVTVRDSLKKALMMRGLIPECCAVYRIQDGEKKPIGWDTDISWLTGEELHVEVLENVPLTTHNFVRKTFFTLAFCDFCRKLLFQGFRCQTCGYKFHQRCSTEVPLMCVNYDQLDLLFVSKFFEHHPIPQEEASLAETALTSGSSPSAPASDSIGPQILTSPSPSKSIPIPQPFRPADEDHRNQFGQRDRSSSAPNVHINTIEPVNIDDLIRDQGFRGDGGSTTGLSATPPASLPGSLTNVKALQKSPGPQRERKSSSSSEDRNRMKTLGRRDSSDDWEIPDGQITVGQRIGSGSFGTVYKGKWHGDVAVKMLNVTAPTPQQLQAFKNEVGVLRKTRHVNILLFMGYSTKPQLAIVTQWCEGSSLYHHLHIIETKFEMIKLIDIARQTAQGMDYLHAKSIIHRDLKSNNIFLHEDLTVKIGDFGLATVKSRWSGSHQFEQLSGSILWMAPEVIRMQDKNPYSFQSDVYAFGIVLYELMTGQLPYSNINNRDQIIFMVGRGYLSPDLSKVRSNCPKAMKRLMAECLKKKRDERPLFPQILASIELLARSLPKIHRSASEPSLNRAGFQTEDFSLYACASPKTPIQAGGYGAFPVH
T1 sequence (P35968 20-1356): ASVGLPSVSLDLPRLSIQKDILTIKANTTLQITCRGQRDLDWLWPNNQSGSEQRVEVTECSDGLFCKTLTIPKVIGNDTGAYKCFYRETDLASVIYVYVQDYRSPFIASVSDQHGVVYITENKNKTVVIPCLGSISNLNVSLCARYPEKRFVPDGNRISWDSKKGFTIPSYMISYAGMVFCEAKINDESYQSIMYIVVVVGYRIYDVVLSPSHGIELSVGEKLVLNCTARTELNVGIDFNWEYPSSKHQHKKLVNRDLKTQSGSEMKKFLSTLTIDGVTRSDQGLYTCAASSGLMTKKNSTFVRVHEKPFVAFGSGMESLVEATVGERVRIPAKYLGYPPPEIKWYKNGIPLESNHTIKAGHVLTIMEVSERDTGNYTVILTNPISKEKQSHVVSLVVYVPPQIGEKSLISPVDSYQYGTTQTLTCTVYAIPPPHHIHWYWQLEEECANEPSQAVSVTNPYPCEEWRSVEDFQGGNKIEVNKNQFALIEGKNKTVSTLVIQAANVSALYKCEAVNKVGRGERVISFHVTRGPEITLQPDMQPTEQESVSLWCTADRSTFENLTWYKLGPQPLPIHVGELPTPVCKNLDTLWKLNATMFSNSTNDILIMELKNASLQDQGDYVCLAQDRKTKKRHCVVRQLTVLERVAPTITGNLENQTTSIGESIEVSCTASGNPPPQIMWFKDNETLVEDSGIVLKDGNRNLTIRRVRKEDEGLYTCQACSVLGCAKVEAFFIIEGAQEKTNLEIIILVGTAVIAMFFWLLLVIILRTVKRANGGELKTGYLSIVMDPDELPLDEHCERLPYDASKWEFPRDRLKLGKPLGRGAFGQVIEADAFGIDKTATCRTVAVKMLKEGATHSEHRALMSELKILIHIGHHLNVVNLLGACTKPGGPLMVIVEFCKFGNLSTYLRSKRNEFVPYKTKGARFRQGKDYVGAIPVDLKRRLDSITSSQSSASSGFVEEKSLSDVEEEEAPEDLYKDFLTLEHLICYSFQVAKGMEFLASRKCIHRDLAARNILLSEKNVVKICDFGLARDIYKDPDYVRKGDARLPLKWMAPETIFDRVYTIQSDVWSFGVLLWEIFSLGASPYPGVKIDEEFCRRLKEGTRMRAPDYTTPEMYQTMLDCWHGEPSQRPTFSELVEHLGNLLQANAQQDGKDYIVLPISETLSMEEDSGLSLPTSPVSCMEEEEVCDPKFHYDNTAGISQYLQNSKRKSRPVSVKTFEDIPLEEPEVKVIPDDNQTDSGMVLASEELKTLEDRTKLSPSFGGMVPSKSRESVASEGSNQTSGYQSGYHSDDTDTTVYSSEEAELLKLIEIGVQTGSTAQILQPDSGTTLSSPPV
T11 sequence (P04049 whole entry): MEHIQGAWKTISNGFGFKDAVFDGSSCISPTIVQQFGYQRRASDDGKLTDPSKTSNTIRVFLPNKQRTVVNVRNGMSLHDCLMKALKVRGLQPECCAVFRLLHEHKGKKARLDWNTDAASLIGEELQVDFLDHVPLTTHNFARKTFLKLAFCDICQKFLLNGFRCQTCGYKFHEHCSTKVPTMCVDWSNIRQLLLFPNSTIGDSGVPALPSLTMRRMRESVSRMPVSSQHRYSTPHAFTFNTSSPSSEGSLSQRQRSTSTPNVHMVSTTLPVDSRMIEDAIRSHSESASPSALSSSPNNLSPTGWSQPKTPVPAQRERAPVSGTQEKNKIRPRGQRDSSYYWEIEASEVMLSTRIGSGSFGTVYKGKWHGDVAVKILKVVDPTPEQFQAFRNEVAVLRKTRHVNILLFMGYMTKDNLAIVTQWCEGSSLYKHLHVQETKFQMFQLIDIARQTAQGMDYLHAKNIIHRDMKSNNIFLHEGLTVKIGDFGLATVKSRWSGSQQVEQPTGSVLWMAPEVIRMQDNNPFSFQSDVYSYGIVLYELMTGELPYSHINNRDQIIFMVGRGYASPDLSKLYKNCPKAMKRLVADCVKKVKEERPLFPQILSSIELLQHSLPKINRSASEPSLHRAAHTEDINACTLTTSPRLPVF

c1cnc2[nH]cc(Sc3ccncc3)c2c1 [Compound P-0131]
≤ 10 µM: Kdr | Stk6 | MAP4K4

COc1ccc(-c2cnc3[nH]cc(C#Cc4cccc(C(=O)O)c4)c3c2)cc1OC [Compound P-0174]
≤ 10 µM: B-Raf V600E | Kdr | Stk6 | MAP4K4

c1cncc(-c2cnc3[nH]ccc3c2)c1 [Compound P-0176]
≤ 10 µM: Jnk3 | Kdr | Kit | Stk6 | MAP4K4

c1ccc(Sc2c[nH]c3ncccc23)nc1 [Compound P-0214]
≤ 10 µM: Flt1 | Stk6 | MAP4K4

COc1cccc(Cc2c[nH]c3ncc(-c4ccsc4)cc23)n1 [Compound P-0300]
≤ 10 µM: Jnk3 | Kit | Stk6 | MAP4K4

Clc1ncccc1Cc1c[nH]c2ncccc12 [Compound P-0317]
≤ 10 µM: Fms | Stk6 | MAP4K4

COc1cc(Cc2c[nH]c3ncccc23)cc(OC)c1 [Compound P-0391]
≤ 10 µM: Fak | FGFR1 | Fms | Kdr | Kit | MAP4K4

CS(=O)(=O)Nc1ccc(Cl)c(C(=O)c2c[nH]c3ncc(-c4cccnc4)cc23)c1F [Compound P-0734, N-[4-Chloro-2-fluoro-3-(5-pyridin-3-yl-1H-pyrrolo[2,3-b]pyridine-3-carbonyl)-phenyl]-methanesulfonamide]
≤ 10 µM: B-Raf | B-Raf V600E | c-Raf-1 | FGFR1 | Jnk1 | Jnk2 | Jnk3 | Ret | MAP4K4

Cc1[nH]c2ncccc2c1-c1cccc(F)c1 [Compound P-0986]
≤ 10 µM: Fak | MAP4K4

CCCS(=O)(=O)Nc1ccc(F)c(C(=O)c2c[nH]c3ncc(OCCOC)cc23)c1F [Compound P-1253, Propane-1-sulfonic acid {2,4-difluoro-3-[5-(2-methoxy-ethoxy)-1H-pyrrolo[2,3-b]pyridine-3-carbonyl]-phenyl}-amide]
not listed: Kdr | Stk6 | Flt1 | Ret
≤ 10 µM: all other assays above

CCCC(=O)Nc1ccc(F)c(C(=O)c2c[nH]c3ncc(-c4cccnc4)cc23)c1F [Compound P-1279]
not listed: Kdr | Stk6 | Jnk2 | Ret | Src
≤ 10 µM: all other assays above

CCC(C)NC(=O)Nc1ccc(F)c(C(=O)c2c[nH]c3ncc(-c4cccnc4)cc23)c1F (stereo not shown) [Compound P-1289, 1-sec-Butyl-3-[2,4-difluoro-3-(5-pyridin-3-yl-1H-pyrrolo[2,3-b]pyridine-3-carbonyl)-phenyl]-urea]
not listed: Kdr | Stk6 | Jnk2 | Ret
≤ 10 µM: all other assays above

NC(=O)c1cccc(-c2cnc3[nH]cc(C(=O)c4ccccc4OCc4ccccc4)c3c2)c1 [Compound P-1383]
≤ 10 µM: B-Raf | B-Raf V600E | Fak | FGFR1 | Flt1 | Kit | Src | MAP4K4

COc1cc(OC)cc(C(=O)c2c[nH]c3ncc(-c4cccnc4)cc23)c1 [Compound P-1411, (3,5-Dimethoxy-phenyl)-(5-pyridin-3-yl-1H-pyrrolo[2,3-b]pyridin-3-yl)-methanone]
≤ 10 µM: B-Raf V600E | Fak | FGFR1 | Flt1 | Fms | Kit | MAP4K4

O=C(c1c(F)cccc1F)c1c[nH]c2ncccc12 [Compound P-1685]
≤ 10 µM: Fak | FGFR1 | Fms | Kit | MAP4K4
